The record followed here is patent US8592374B2, “Neurotrophic peptides” (Research Foundation for Mental Hygiene, Inc., priority 2007, dated 2013).

For experiment [1], the system named is adult hippocampal progenitors in the dentate gyrus. The experiment in a line: Neurogenesis in the DG (BrdU-positive and BrdU/NeuN-double-positive cells). It is filed as in vivo, mice. The note with it: 25 nmol/day for 35 days. How it is done:
For the compound treatment, mice (8 animals/group) received subcutaneous implants of extended release depot pellets containing P21 or P22 at 25 nmol/day for 35 days of continuous dosing (Innovative Research of America, USA). For the control group (8 animals), pellets consisted of the carrier polymer only. Mice were anesthetized with 2.5% Avertin (0.38 ml for a 25 g animal). Under sterile conditions, pellets were implanted subcutaneously along the anterolateral aspect of the right shoulder with a precision trochar (Innovative Research of America). After recovery of anesthesia, animals were transferred to the animal colony. No complications associated with the implantation and treatment were observed. All procedures on animals were conducted in accordance with approved protocols from our Institutional Animal Welfare Committee.
To investigate neurogenesis, BrdU (Sigma, USA) was given as two daily i.p. injections (100 mg/kg/dose) for five days starting on day 2 of compounds treatment.
At the end of the behavioral experiment, animals were anesthetized with an overdose of sodium pentobarbital (120 mg/kg) and transcardially perfused with 0.1 M phosphate buffered saline (PBS). After perfusion, the brains were removed from the skull, the left hemisphere was immediately frozen for future biochemical analysis and the right hemisphere was immersion fixed in 4% paraformaldehyde in 0.1 M PBS for at least 24 hours at room temperature. Tissues were equilibrated and stored in 30% sucrose solution at 4° C. until sectioning. The brains were sectioned sagittaly on a freezing sliding microtome at 40 μm through the entire hippocampus and the sections were stored in glycol anti-freeze solution (Ethylene glycol, glycerol and 0.1 M PBS in 3:3:4 ratio) at −20° C. until further processing.
For double labeling of BrdU and NeuN, brain sections were pretreated with 2 M HCl at 37° C. for 30 min and neutralized with 0.1 M borate buffer (pH 8.5) for 10 minutes. […]
Neurogenesis in the dentate gyrus was evaluated by counting the number of BrdU-positive and BrdU/NeuN-double-positive cells in the dentate gyrus (DG). The number of positive cells was determined in every fifth section in a series of 40 μm sagittal sections throughout the DG using unbiased sterology. All BrdU-positive cells in the subgranular zone (SGZ) and granule cell layer (GCL) were counted using a fluorescent microscope (Nikon Eclipse 90i, Nikon Corporation, Japan). Double labeled cells were assessed by a confocal imaging system (D-Eclipse C1, Nikon Corporation). […] For each brain, at least 100 cells were counted based on coefficient of error determinations.

For experiment [2], the system named is dentate gyrus. The experiment in a line: Expression of synaptophysin and synapsin I in the DG (optical density). It is filed as in vivo, mice. The following applies: 25 nmol/day for 35 days. How it is done: For double labeling of BrdU and NeuN, brain sections were pretreated with 2 M HCl at 37° C. for 30 min and neutralized with 0.1 M borate buffer (pH 8.5) for 10 minutes. Tissue sections were incubated first for 30 min with blocking buffer (4% normal goat serum+0.1% Tween-20 in PBS) and then overnight at 4° C. in the presence of BrdU (Millipore Corporation, USA) and NeuN (Millipore Corporation) antibodies diluted 1:400 and 1:100, respectively. To determine the integrity of presynaptic terminals, tissues were labeled with anti-synaptophysin (1:200; Clone SY38, Millipore Corporation) or anti-synapsin I (1:200; Stressgen Biotechnologies Corporation, Canada). The brain sections were incubated in primary antibody over night at 4° C., respectively. Alexa 488 and 594 (1:500; Invitrogen, USA) were used as secondary antibodies. All images were obtained using Nikon Eclipse 90i and D-Eclipse C1 microscopes (Nikon Corporation, Japan).
For quantitative analysis of the expression of synaptophysin and synapsin I in DG, every tenth section in a series of 40 μm coronal sections throughout the hippocampus was analyzed. The entire area of GCL was outlined. Maximum projection images were then generated based on confocal z-stacks, and antibody staining was quantified by measuring the mean optical density (OD) with the help of NIH Image J program, version 1.32j (http://rsb.info.nih.gov/ij/).

Molecules are shown by their SMILES. Entries after “also recorded” stand apart in the source; their conditions may differ. Peptide text beside a SMILES is read from it. * marks the point of attachment. X1 = NC(=O)C12CC3CC(CC(N*)(C3)C1)C2

Consider `CC(=O)N[C@@H](CC(=O)O)C(=O)NCC(=O)NCC(=O)N[C@@H](CC(C)C)C(=O)NC12CC3CC(C1)CC(C(N)=O)(C3)C2` [Peptide P21, Ac-DGGL^AG-NH2] (Ac-DGGL-X1), for which, in experiment [1], the “BrdU positive cells in the DG (GCL and SGZ)” value is “significantly increased; also recorded: significant increase”; the “BrdU/NeuN positive cells in the DG (GCL)” value is reported as “significantly increased; also recorded: significant increase”. In experiment [2], the “synapsin I immunoreactivity in the GCL and MCL” value is on record as “significantly promoted expression; also recorded: Significant increases”; the “synaptophysin immunoreactivity in the GCL and MCL” value was “significantly promoted expression; also recorded: Significant increases”.
